Tests used:
Format in all cases: in vivo, swine
mature postpartum sows = test: Intravulvar deslorelin in SAIB at estrus detection, AI breeding of mature postpartum sows; details: 50 μg intravulvar at first estrus detection
Procedure: Sows were assigned randomly in blocks of two to either control or to be injected intravulvar with 50 mcg of deslorelin in SAIB at the time of estrus detection for sows first detected in estrus in the a.m. and 12 hours later for those first detected in estrus in the p.m. Treated animals were bred AI upon detected estrus and again 24 hours later if still in estrus. Controls received a saline injection on first detected estrus behavior estrus detection and were bred according to the farm's normal procedures.

postpartum sows = test: Single timed deslorelin in SAIB injection 96 hours post-weaning, single timed insemination without estrus detection
Procedure: Approximately 170 postpartum sows were randomly divided into two equal groups comprised of controls and treated. Following weaning, the controls were detected for estrus and bred following the normal standard operating procedures for the farms on which they resided. The treated sows received a 50 mcg dose of deslorelin in SAIB at 96 hours post-weaning and were bred with a single insemination 28+/−2 hours later with no regard to estrus detection. The sows were examined for pregnancy by ultrasound at 21 days and slaughtered around 28 days post breeding. The entire reproductive tract was removed and corpora lutea and embryos were counted.

[1] = system: ovariectomized estrogen primed gilt model; test: Dose response study of deslorelin in SAIB, LH release determined by RIA; details: single injection of 50 mcg
Procedure: A dose response study was performed using deslorelin in SAIB in an ovariectomized estrogen primed gilt model (Barb, et al. (1999) Proceed. Int'l. Symp. Control. Rel. Bioact. Mater., 26).

With `CCNC(=O)[C@@H]1CCCN1C(=O)[C@H](CCCN=C(N)N)NC(=O)[C@H](CC(C)C)NC(=O)[C@@H](Cc1c[nH]c2ccccc12)NC(=O)[C@H](Cc1ccc(O)cc1)NC(=O)[C@H](CO)NC(=O)[C@H](Cc1c[nH]c2ccccc12)NC(=O)[C@H](Cc1cnc[nH]1)NC(=O)[C@@H]1CCC(=O)N1` [Deslorelin, deslorelin] the “Length of Estrus (Hrs.)” value (mature postpartum sows; AI, AI again if in estrus the next day) was 40.81 (n = 69) Hrs, the “Live piglet number per litter, greater in Deslorelin versus Saline sows” value (mature postpartum sows; difference to saline control, listed as deslorelin in SAIB) was 0.6 and the “Sows Pregnant” value (postpartum sows; 50 mcg at 96 hours post-weaning, single insemination 28+/-2 hours later, 84 in group, ultrasound at 21 days) was 60. The “pregnancy rates (in words)” value (postpartum sows; single timed injection post-weaning, single timed insemination, no estrus detection) was “normal pregnancy rates”, the “time at which LH returned to base level” value [1] was ≤ 18 h and the “LH peak relative to normal value” ([1]; normal value from Hansel et al. 1973) was “about twice normal value”.
